The test system of assay [1] is human colorectal cancer cell line, COLO-320DM. Put plainly: Cell proliferation inhibitory activity test (Celltiter-Glo Luminescent Cell Viability Assay). Type of assay: cell-based. To be noted: COLO-320DM cells, 96 hours. How it is done: (Test Example 2) Cell Proliferation Inhibitory Activity Test
The cell proliferation inhibitory activity of the compound obtained in each of Examples against human colorectal cancer cell line, COLO-320DM was evaluated by Celltiter-Glo Luminescent Cell Viability Assay (Promega Corporation, G7573). The COLO-320 DM cells were cultured in a RPMI-1640 medium (Wako Pure Chemical Industries, Ltd., 189-02025) containing 10% fetal bovine serum and 2 mM of glutamine. The cultured cells were washed with PBS and then detached with trypsin/EDTA to prepare a cell solution containing 3×10^4 cells/mL.
Next, the cell solution was seeded in a 96 well microplate (Thermo/Nunc, 136101) in an amount of 70 μL/well and was cultured overnight under conditions at 37° C. with 5% CO2. On the next day, 10 μL/well of a solution in which the test target compound (DMSO solution) was diluted with the cell culture medium (a final DMSO concentration of 1%) was added and the reaction was allowed to proceed under conditions at 37° C. with 5% CO2 for 96 hours (a 1% DMSO solution was used as a control). Subsequently, 80 μL/well of Celltiter-Glo Luminescent Cell Viability Assay reagent (Promega Corporation, G7573) was added, followed by agitation for 2 minutes with a shaker under shielding with aluminum foil. Thereafter, the resultant solution was allowed to stand for reaction at room temperature for 10 minutes.
After that, the luminescent signal was measured with a luminometer (Biotech, Synergy). The cell proliferation inhibitory activity was evaluated by obtaining a percentage of a cell proliferation volume of each compound-added group with respect to a cell proliferation volume (100%) of a control group in which no test target component solution was added, and calculating a value of compound concentration (GI50) required to reduce the remaining cell volume to 50% of the remaining cell volume of the control. […] The results are shown in Tables 120 to 123 together with the results of the tankyrase inhibition activity test.
(In general: ATP-based viability assays read luminescence as a measure of living cells.)

Assay [2] deals with T1, tankyrase 1 (TNKS 1) (Homo sapiens, UniProt O95271).
T1 construct: 1,024-1,327aa; made in house; host or cells: cell-free protein synthesis system
Kind of assay: Tankyrase inhibitory activity test (ELISA, self-polyADP ribosylation), tankyrase 1. The format is biochemical. The settings on record: self-polyADP ribosylation. As for the experimental part:
(§1) (Test Example 1) Tankyrase Inhibitory Activity Test
(§2) For each of the compounds obtained in Examples (the test target compounds), the tankyrase inhibitory activity (an inhibitory activity against tankyrase 1 (TNKS 1) and an inhibitory activity against tankyrase 2 (TNKS 2)) was evaluated by measuring the enzymatic activity of tankyrase 1 and the enzymatic activity of tankyrase 2 by the ELISA technique using self-polyADP ribosylation as an index. First, Flag-tag fusion tankyrase 1 (1,024-1,327aa, SAM+PARP) and tankyrase 2 (613-1, 116aa, ANK5+SAM+PARP) were each synthesized by a cell-free protein synthesis system and diluted with a Tris buffer (50 mM Tris-HCl (pH 8.0), 150 mM NaCl, 10% glycerol). Then, 50 μL of the diluted tankyrase 1 or tankyrase 2 was added to a plate on which the anti-FLAGM 2 monoclonal antibody was immobilized (Anti-FLAG high sensitivity M2 coated plate) (SIGMA Corporation), and was allowed to stand at 4° C. overnight. Thereafter, the plate was washed four times with a PBS buffer containing 0.1% Triton X-100 (PBST buffer).
(§3) Subsequently, the test target compound diluted with an assay buffer (50 mM Tris-HCl (pH 8.0), 4 mM MgCl2, 0.2 mM DTT) (using DMSO as a control) was added to each well of the plate and was allowed to stand at room temperature for 10 minutes. Thereafter, a biotin-labeled NAD solution (225 μM NAD, 25 μM 6-Biotin-17-NAD (Trevigen Inc.)) was added as a donor substrate and mixed with the resultant test target compound, and the reaction was allowed to proceed at 30° C. for 45 minutes. Instead of the biotin-labeled NAD solution, distilled water was added to blank wells. After the reaction, the plate was washed four times with the PBST buffer. Thereafter, HRP (horseradish peroxidase)-labeled streptavidin (Trevigen Inc.) diluted 1,000-fold with the PBS buffer was added to each well, and the reaction was allowed to proceed at room temperature for 20 minutes. After the plate was washed four times with the PBST buffer, a chemiluminescent substrate solution TACS-Sapphire (Trevigen Inc.) was added to each well and the reaction was allowed to proceed at room temperature for 20 minutes. Then, the chemiluminescence intensity was measured using a chemiluminescence measuring apparatus.
(§4) The residual enzyme activity in the presence of the test target compound was determined in accordance with the following formula. Based on the residual enzyme activity at multiple concentrations of the test target compound, an enzyme inhibition activity was calculated as a 50% inhibitory concentration (IC50 value) using data analysis software named Origin (LightStone Corp.).
For orientation: An ELISA detects its analyte on a solid surface through an enzyme-linked reagent.

Assay [3] has as its target T2, tankyrase 2 (TNKS 2) (Homo sapiens, UniProt Q9H2K2).
T2 construct: 613-1, 116aa; made in house; host or cells: cell-free protein synthesis system
Kind of assay: Tankyrase inhibitory activity test (ELISA, self-polyADP ribosylation), tankyrase 2. Type of assay: biochemical. To be noted: self-polyADP ribosylation. How it is done: as §1, §2, §3, §4

Where [4] appears, read: class symbols, read-out: COLO-320 DM (cell proliferation inhibitory activity, GI50 value).
[5] abbreviates: ELISA, class symbols, read-out: TNKS1 (inhibitory activity against tankyrase 1, IC50 value).
[6] abbreviates: ELISA, class symbols, read-out: TNKS2 (inhibitory activity against tankyrase 2, IC50 value).
Setting [7] is: read-out: COLO-320 DM cell proliferation inhibitory activity (GI50 class).
The mark [8] stands for this setting: tankyrase 1, ELISA, read-out: TNKS1 inhibitory activity (IC50 class).
The mark [9] stands for this setting: tankyrase 2, ELISA, read-out: TNKS2 inhibitory activity (IC50 class).

Each structure is given as a SMILES string. Like-named read-outs stand apart in the source and are kept apart here.

The values that follow come from patent US11414429B2, “Compound or pharmaceutically acceptable salt thereof” (RIKEN, priority 2016, dated 2022).

By IC50 is commonly meant the concentration that inhibits the measured activity by half.

T1 sequence (O95271 1024-1327): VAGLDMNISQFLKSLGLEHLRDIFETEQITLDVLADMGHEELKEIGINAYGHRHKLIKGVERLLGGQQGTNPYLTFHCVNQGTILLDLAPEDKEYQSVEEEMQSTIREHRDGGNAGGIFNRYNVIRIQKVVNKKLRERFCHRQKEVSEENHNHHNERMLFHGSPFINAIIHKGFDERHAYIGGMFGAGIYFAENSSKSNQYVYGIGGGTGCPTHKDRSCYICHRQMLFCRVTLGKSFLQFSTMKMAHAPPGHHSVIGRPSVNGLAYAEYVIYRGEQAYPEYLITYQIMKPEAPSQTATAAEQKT
T2 sequence (Q9H2K2 613-1166): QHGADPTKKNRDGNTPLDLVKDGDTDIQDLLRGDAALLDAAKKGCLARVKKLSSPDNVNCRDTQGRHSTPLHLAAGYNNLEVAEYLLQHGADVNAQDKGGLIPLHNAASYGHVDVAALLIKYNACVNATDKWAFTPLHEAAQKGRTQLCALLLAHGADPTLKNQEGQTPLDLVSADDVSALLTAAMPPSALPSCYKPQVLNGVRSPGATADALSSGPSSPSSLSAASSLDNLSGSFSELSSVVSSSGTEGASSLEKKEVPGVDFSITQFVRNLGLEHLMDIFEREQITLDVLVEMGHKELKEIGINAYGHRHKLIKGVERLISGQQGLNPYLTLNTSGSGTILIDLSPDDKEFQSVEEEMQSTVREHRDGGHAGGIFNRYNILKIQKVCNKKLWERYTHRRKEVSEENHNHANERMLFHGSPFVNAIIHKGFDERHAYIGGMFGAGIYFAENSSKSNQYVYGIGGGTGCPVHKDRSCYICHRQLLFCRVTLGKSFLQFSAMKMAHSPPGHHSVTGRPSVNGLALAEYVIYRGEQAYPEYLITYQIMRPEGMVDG

As for `COCCN1CCN(c2cc(F)c3c(c2)N(C)C(=O)C32CCN(c3nc4c(c(=O)[nH]3)CCCN4C)CC2)CC1` [Example 397, 4-fluoro-6-(4-(2-methoxy-ethyl)piperazin-1-yl)-1-methyl-1′-(8-methyl-4-oxo-3,4,5,6,7,8-hexahydro-pyrido [2,3-d]pyrimidin-2-yl) spiro[indoline-3,4′-piperidin]-2(1H)-one], the GI50 in assay [1] (setting [4]) lay in the range of 0.1 to 0.6 µM. For the same molecule, the IC50 in assay [2] (setting [5]) and in assay [3] (setting [6]) was 0.02 to 0.2 µM in each case.

In the case of `CN1CCCc2c1nc(N1CCC3(CC1)CN(CCO)c1cc(F)cc(F)c13)[nH]c2=O` [Example 338, 2-[4,6-difluoro-1-(2-hydroxyethyl)spiro [indoline-3,4′-piperidin]-1′-yl]-8-methyl-5,6,7,8-tetrahydro-pyrido [2,3-d] pyrimidin-4(3H)-one], in assay [1] (setting [7]), the GI50 is 0.1 to 0.6 µM. Also, the IC50 in assay [2] (setting [8]) was 0.02 to 0.2 µM; in assay [3] (setting [9]) it was < 0.02 µM.

In the case of `CN1CCCc2c1nc(N1CCC3(CC1)C(=O)N(C)c1cc(OCCCN4CCOCC4)cc(F)c13)[nH]c2=O` [Example 365, 4-fluoro-1-methyl-1′-(8-methyl-4-oxo-3,4,5,6,7,8-hexahydro-pyrido[2,3-d]pyrimidin-2-yl)-6-(3-morpholino-propoxy) spiro[indoline-3,4′-piperidin]-2-one], the GI50 in assay [1] (setting [7]) lay within 0.6 to 1 µM. For the same molecule, the IC50 in assay [2] (setting [8]) and in assay [3] (setting [9]) was < 0.02 µM in each case.

For the molecule `CN1CCCc2c1nc(N1CCC3(CC1)C(=O)N(C)c1cc(OCC4COC4)cc(F)c13)[nH]c2=O` [Example 388, 4-fluoro-1-methyl-1′-(8-methyl-4-oxo-3,4,5,6,7,8-hexahydropyrido [2,3-d]pyrimidin-2-yl)-6-(oxetan-3-ylmethoxy) spiro[indoline-3,4′-piperidin]-2-one], the GI50 in assay [1] (setting [7]) is < 0.1 µM. Besides, the IC50 in assay [2] (setting [8]) and in assay [3] (setting [9]) was < 0.02 µM each time.

As to `O=C1OC2(CCN(c3nc4c(c(=O)[nH]3)CCCN4)CC2)c2c(F)cc(N3CCOCC3)cc21` [Example 471, 7-fluoro-1′-(4-hydroxy-6,7-dihydro-5H-pyrido[2,3-d]pyrimidin-2-yl)-6-morpholino-4-ylspiro[2-benzofuran-3,4′-piperidin]-1-one], in assay [1] (setting [4]), the GI50 was 0.6 to 1 µM. The IC50 in assay [2] (setting [5]) and in assay [3] (setting [6]) was < 0.02 µM each time.

In the case of `CN1CCCc2c1nc(N1CCC3(CC1)C(=O)N(CC#N)c1cc(F)cc(F)c13)[nH]c2=O` [Example 374, 2-(4,6-difluoro-1′-(8-methyl-4-oxo-3,4,5,6,7,8-hexahydropyrido [2,3-d]pyrimidin-2-yl)-2-oxospiro[indoline-3,4′-piperidin]-1-yl)acetonitrile], the GI50 in assay [1] (setting [7]) is < 0.1 µM. In addition, the IC50 in assay [2] (setting [8]) and in assay [3] (setting [9]) was < 0.02 µM each time.

In the case of `O=C1N(CC2CCCO2)c2cccc(F)c2C12CCN(c1nc3c(c(=O)[nH]1)CCCN3)CC2` (stereo not drawn) [Example 469, 4-fluoro-1′-(4-hydroxy-5,6,7,8-tetrahydroypyrido[2,3-d]pyrimidin-2-yl)-1-(oxolan-2-ylmethyl)spiro[indole-3,4′-piperidine]-2-one], in assay [1] (setting [4]), the GI50 is 0.1 to 0.6 µM. For the same molecule, the IC50 in assay [2] (setting [5]) was 0.02 to 0.2 µM; in assay [3] (setting [6]), < 0.02 µM.

On to `CN1CCCc2c1nc(N1CCC3(CC1)C(=O)N(CC(F)(F)F)c1cc(OCC(=O)O)cc(F)c13)[nH]c2=O` [Example 408], for which, in assay [1] (setting [4]), the GI50 was < 0.1 µM.

As to `CN1CCCc2c1nc(N1CCC3(CC1)C(=O)N(C)c1c(OC4CCOC4)ccc(Cl)c13)[nH]c2=O` (stereo not drawn) [Example 433, 4-chloro-1′-(4-hydroxy-8-methyl-6,7-dihydro-5H-pyrido[2,3-d]pyrimidin-2-yl)-1-methyl-7-(oxolan-3-yloxy) spiro[indole-3,4′-piperidin]-2-one], the GI50 in assay [1] (setting [4]) is < 0.1 µM.

Take `CN1CCCc2c1nc(N1CCC3(CC1)C(=O)N(C)c1cc(C4CCC(O)CC4)cc(F)c13)[nH]c2=O` (stereo not drawn) [Example 468, 4-fluoro-6-(4-hydroxycyclohexyl)-1-methyl-1′-(8-methyl-4-oxo-3,4,5,6,7,8-hexahydropyrido[2,3-d]pyrimidin-2-yl)spiro[indole-3,4′-piperidine]-2(1H)-one]: the GI50 in assay [1] (setting [4]) was < 0.1 µM.
